The compounds below were run against T1, Caspase-3 (Homo sapiens, UniProt P42574) (assay: Inhibition of caspase 3 using Ac-DEVD-AFC fluorogenic substrate).
T1 sequence (P42574 whole entry): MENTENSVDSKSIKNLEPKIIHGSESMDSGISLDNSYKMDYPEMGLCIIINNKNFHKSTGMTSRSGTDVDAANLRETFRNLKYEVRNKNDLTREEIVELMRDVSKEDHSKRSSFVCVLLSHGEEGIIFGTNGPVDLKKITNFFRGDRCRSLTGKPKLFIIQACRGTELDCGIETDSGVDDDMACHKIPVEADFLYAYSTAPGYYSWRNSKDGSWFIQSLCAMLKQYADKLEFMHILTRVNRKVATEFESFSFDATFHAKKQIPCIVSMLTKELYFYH

IC50 [nM]	SMILES
16.7	O=C1C(=O)N(Cc2cn(CCF)nn2)c2ccc(S(=O)(=O)N3CCC[C@H]3COc3ccccc3)cc21
0.5	O=C1C(=O)N(Cc2cn(CCF)nn2)c2ccc(S(=O)(=O)N3CCC[C@H]3COc3ccc(F)cc3F)cc21
1000	O=C1Nc2ccc([N+](=O)[O-])cc2C1=O [5-NITROISATIN]

From ChEMBL document CHEMBL1681737, “Isatin 1,2,3-triazoles as potent inhibitors against caspase-3” (Bioorg Med Chem Lett, 2011)
